Key:
Experiment in all cases: relative viability (nuclei count vs DMSO), 5 days (fraction); higher = more cells survive
[1] = compound: CCOC(=O)CCNc1cc(N2CCc3ccccc3CC2)nc(-c2ccccn2)n1 [GSK-J4] + O=C(CCCCCCC(=O)Nc1ccccc1)NO [Vorinostat] (partner 1 µM)
Summary of the method: (§1)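 Nuclei were stained with Hoechst during a one-step fixation (final 0.05% Triton X-100, 1% formaldehyde, 1 ug/ml Hoechst) carried out 5 days after dosing, then counted on 4× images. The cells, lung cancer lines in 1536-well plates, had been dosed by pin tool the day after seeding with one drug alone or a fixed anchor-drug dose plus five library-drug doses (not always all listed) in √10 steps. Relative viability is the nuclei count in treated wells divided by that in vehicle wells, and each value is the median of duplicate plates.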

[2] = compound: CN1CCC(CC1)OC2=CC(=C(C=C2)NC3=NC=C4C(=N3)N(C(=O)N4C)C5CCCC5)OC [AZ3146] + CCNC(=O)c1noc(-c2cc(C(C)C)c(O)cc2O)c1-c1ccc(CN2CCOCC2)cc1 [Luminespib] (partner 0.01 µM)
Summary of the method: as §1

[3] = compound: CN1CCC(CC1)OC2=CC(=C(C=C2)NC3=NC=C4C(=N3)N(C(=O)N4C)C5CCCC5)OC [AZ3146] + Cc1cc(Nc2cc(N3CCN(C)CC3)nc(Sc3ccc(NC(=O)C4CC4)cc3)n2)n[nH]1 [Tozasertib] (partner 0.1 µM)
Summary of the method: as §1

[4] = compound: CN1CCC(CC1)OC2=CC(=C(C=C2)NC3=NC=C4C(=N3)N(C(=O)N4C)C5CCCC5)OC [AZ3146] + O=C(c1cc(Cc2n[nH]c(=O)c3ccccc23)ccc1F)N1CCN(C(=O)C2CC2)CC1 [Olaparib] (partner 8 µM)
Summary of the method: as §1

Row | Cell Line | relative viability ([1]; first compound 0.5 µM) | relative viability ([1]; first compound 5 µM) | relative viability ([1]; first compound 15.81 µM) | relative viability ([1]; first compound 50 µM) | relative viability ([2]; first compound 0.08 µM) | relative viability ([2]; first compound 0.253 µM) | relative viability ([2]; first compound 0.8 µM) | relative viability ([2]; first compound 2.53 µM) | relative viability ([2]; first compound 8 µM) | relative viability ([3]; first compound 0.08 µM) | relative viability ([3]; first compound 0.253 µM) | relative viability ([3]; first compound 0.8 µM) | relative viability ([3]; first compound 2.53 µM) | relative viability ([3]; first compound 8 µM) | relative viability ([4]; first compound 0.08 µM) | relative viability ([4]; first compound 0.253 µM) | relative viability ([4]; first compound 0.8 µM) | relative viability ([4]; first compound 2.53 µM) | relative viability ([4]; first compound 8 µM) | relative viability ([1]; first compound 1.581 µM)
1 | COR-L 105 | 0.899 | 0.833 | 0.843 | 0.526 | 0.776 | 0.8 | 0.815 | 0.824 | 0.678 | 0.409 | 0.335 | 0.304 | 0.293 | 0.309 | 0.654 | 0.717 | 0.503 | 0.696 | 0.648 | –
2 | NCI-H1666 | 0.956 | 0.97 | 1.01 | 0.737 | 1.08 | 1.04 | 1 | 1.04 | 0.763 | 0.473 | 0.527 | 0.442 | 0.463 | 0.338 | 0.719 | 0.79 | 0.741 | 0.75 | 0.741 | 0.931
3 | CAL-12T | 0.723 | 0.874 | 0.689 | 0.682 | 0.267 | 0.573 | 0.423 | 0.556 | 0.341 | 0.263 | 0.3 | 0.209 | 0.247 | 0.235 | 0.733 | 0.822 | 0.717 | 0.658 | 0.6 | 0.693
4 | EPLC-272H | 0.461 | 0.599 | 0.335 | 0.284 | – | 0.342 | 0.519 | 0.323 | 0.321 | – | 0.237 | 0.184 | 0.217 | 0.138 | 0.892 | 0.841 | 0.878 | 0.914 | 0.643 | 0.37
5 | NCI-H1299 | – | – | – | – | – | – | – | – | – | – | – | – | – | – | 0.932 | 0.941 | 0.944 | 0.938 | 0.789 | –
6 | ABC-1 | 1.2 | 0.879 | 0.704 | 0.555 | 0.331 | 0.483 | 0.782 | 0.568 | 0.532 | 0.173 | 0.178 | 0.181 | 0.135 | 0.2 | 0.744 | 0.707 | 0.714 | 0.78 | 0.606 | 1.31
7 | NCI-H358 | 0.662 | 0.671 | 0.602 | 0.455 | 0.407 | 0.383 | 0.51 | 0.508 | 0.394 | 0.0884 | 0.107 | 0.105 | 0.123 | 0.12 | 0.555 | 0.578 | 0.592 | 0.583 | 0.442 | –
8 | NCI-H1437 | 0.827 | 0.715 | 0.706 | 0.305 | 1.12 | 1.15 | 1.11 | 1.15 | 1.07 | 0.355 | 0.42 | 0.394 | 0.354 | 0.265 | 0.589 | 0.611 | 0.611 | 0.635 | 0.532 | 0.608
9 | EKVX | 0.686 | 0.808 | – | 0.524 | 0.836 | 0.842 | 0.838 | 0.981 | 0.899 | 0.314 | 0.399 | 0.364 | 0.378 | 0.232 | 0.798 | 0.828 | 0.811 | 1.07 | 0.798 | –
10 | NCI-H3122 | 0.984 | 0.966 | 0.905 | 0.986 | 0.12 | 0.113 | 0.108 | 0.111 | 0.0978 | 0.397 | 0.345 | 0.307 | 0.344 | 0.228 | 0.582 | 0.611 | 0.543 | 0.615 | 0.645 | 0.876
11 | NCI-H2023 | 0.59 | 0.545 | 0.514 | 0.283 | 0.657 | 0.774 | 0.78 | 0.593 | 0.153 | 0.331 | 0.328 | 0.171 | 0.157 | 0.147 | 0.464 | 0.451 | 0.494 | 0.436 | 0.152 | 0.497
12 | NCI-H460 | 0.663 | 0.623 | 0.67 | 0.656 | 0.0349 | 0.0347 | 0.0408 | 0.0305 | 0.0293 | 0.277 | 0.422 | 0.118 | 0.0719 | 0.0801 | 0.242 | 0.45 | 0.416 | 0.449 | 0.352 | –
13 | PC-3 [JPC-3] | 1.05 | 0.671 | 0.624 | 0.725 | 0.617 | 0.741 | 0.676 | 0.695 | 0.715 | 0.829 | 0.905 | 0.855 | 0.877 | 0.715 | 1.04 | – | 1.01 | 1.25 | 1.09 | 0.723
14 | HCC-15 | 0.903 | 0.789 | 0.718 | 0.503 | 0.262 | 0.393 | 0.531 | 0.785 | 0.552 | 0.374 | 0.426 | 0.263 | 0.221 | 0.102 | 0.618 | 0.737 | 0.726 | 0.725 | 0.648 | 0.791
15 | NCI-H2228 | 0.642 | 0.823 | 0.617 | 0.797 | 0.133 | 0.149 | 0.162 | 0.145 | 0.146 | 0.224 | 0.385 | 0.292 | 0.198 | 0.18 | 0.873 | 0.632 | 0.672 | 0.503 | 0.544 | 0.873
16 | EBC-1 | – | – | – | – | – | – | – | – | – | – | – | – | – | – | 0.699 | 0.71 | 0.671 | 0.634 | 0.397 | –
17 | Calu-6 | – | – | – | – | – | – | – | – | – | – | – | – | – | – | 0.55 | 0.505 | 0.535 | 0.551 | 0.5 | –
18 | A549 | – | – | – | – | – | – | – | – | – | – | – | – | – | – | 0.203 | 0.268 | 0.419 | 0.43 | 0.269 | –
19 | IA-LM | 0.901 | 1.34 | 0.711 | 0.294 | – | – | – | – | – | – | – | – | – | – | 0.775 | 0.808 | 0.91 | 0.919 | 0.486 | –
20 | NCI-H1703 | – | – | – | – | – | – | – | – | – | – | – | – | – | – | 0.424 | 0.383 | 0.517 | 0.346 | 0.402 | –
21 | NCI-H1563 | – | – | – | – | 0.465 | 0.525 | 0.477 | 0.51 | 0.511 | – | – | – | – | – | – | – | – | – | – | –
22 | NCI-H1648 | 0.527 | 0.868 | – | 0.415 | – | – | – | – | – | – | 0.303 | 0.54 | 0.58 | 0.406 | – | – | 0.987 | 1.18 | 0.802 | –
